Source: PubChem BioAssay (NCI)
Several values for one entry are separate records, joined by “and”; a condition that tells them apart may be missing. Equal entries are not always repeated.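 Cultured in 96-well plates, cells were exposed to test compound for 48 hours across five concentrations. GI50 marks 50% less growth. TGI denotes the concentration required for complete inhibition of growth.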

Key:
Assay in all cases: DTP human tumour cell line panel, 48 h
[1] = test system: IGROV1 ovarian
[2] = test system: HCC-2998 colon
[3] = test system: U251 CNS
[4] = test system: SK-OV-3 ovarian
[5] = test system: NCI-H226 lung
[6] = test system: HCT-15 colon
[7] = test system: KM12 colon
[8] = test system: OVCAR-4 ovarian
[9] = test system: DU-145 prostate
[10] = test system: MOLT-4 leukemia

SMILES	GI50 [1]	TGI [1]	GI50 [2]	TGI [2]	GI50 [3]	TGI [3]	GI50 [4]	TGI [4]	GI50 [5] [µM]	TGI [5] [µM]	GI50 [6]	TGI [6]	GI50 [7]	TGI [7]	GI50 [8]	TGI [8] [µM]	GI50 [9] [µM]	TGI [9] [µM]	TGI [10]	GI50 [10]
C=CCC(N[C@@H](CO)c1ccccc1)c1ccccn1 (some centres not stated)	> 100 µM	> 100 µM	> 100 µM	> 100 µM	> 100 µM	> 100 µM	> 100 µM	> 100 µM	> 100	> 100	> 100 µM	> 100 µM	> 100 µM	> 100 µM	25.6 µM	> 100	> 100	> 100		
CN(C)c1ccc(/C=C/c2ccnc3ccc4ccccc4c23)cc1		45.8 µM				> 100 µM		> 100 µM				> 100 µM		> 100 µM				> 100	> 100 µM	
COc1ccc(C2=CC(c3ccc(Oc4ccnc5cc(Cl)ccc45)c(OC)c3)c3c(nc(OC)[nH]c3=O)N2)cc1 (configuration not stated)	26 µM	> 100 µM	> 100 µM	> 100 µM	6.94 µM	> 100 µM	> 100 µM	> 100 µM	16.4	> 100	3.85 µM	> 100 µM	5.91 µM	> 100 µM	6.69 µM	> 100	10.3	> 100		
CN(C)CCNC(=O)c1cccc2cc([N+](=O)[O-])ccc12	1.79 µM and 0.245 µM	14.2 µM and 2.32 µM	1.54 µM and 0.213 µM	3.74 µM and 0.986 µM	2.19 µM and 0.233 µM	11.9 µM and 2.79 µM	3.48 µM and 0.535 µM	33.1 µM and 14.5 µM			1.71 µM and 0.196 µM	11.5 µM and 1.38 µM			2.1 µM and 0.311 µM			17.1	1.25 µM and 0.407 µM	0.292 µM and 0.0829 µM
O=c1c2[nH]c3ccccc3c2nc2n1CCS2			> 100 µM	> 100 µM	> 100 µM	> 100 µM	> 100 µM	> 100 µM	> 100	> 100	68.5 µM	> 100 µM	67 µM	> 100 µM	> 100 µM	> 100	> 100	> 100		
COc1ccc(OC)c(/C=C/C(=O)C(C)(C)C)c1		42.6 µM		39.7 µM		43.1 µM		90.4 µM		35.4		41.2 µM		52.9 µM		49			55.1 µM	
O=C1c2ccccc2C(=O)c2c(NC(=O)C(Cl)CCl)cccc21 (configuration not stated)		20 µM		32.4 µM		> 38.4 µM		39.1 µM		48.3		23.4 µM		8.26 µM		23.3		24.6		
C=CC[N+]1(CCO)CCN=C1CCCCCCCCCCCCC (configuration not stated)	0.288 µM	1.25 µM	1.37 µM	2.66 µM	1.33 µM	2.6 µM	1.73 µM	3.14 µM	1.7	3.43					1.67 µM	3.45	1.6	2.95		
COc1ccc2c(c1)C(=O)c1c-2c(OCCN(C)C)nc2cc(OC)ccc12	1.01 µM	6.03 µM	1.33 µM	2.85 µM	1.2 µM	2.93 µM			1.33	3.32	0.475 µM	2.39 µM	0.759 µM	2.14 µM	1.06 µM	2.9	1.64	8.03	1.2 µM	0.32 µM
CN(C)CCNC(=O)c1cccc2ccc(-c3cccnc3)nc12		25.6 µM		18 µM		19.3 µM		36.9 µM		22.2		17.4 µM		98.4 µM		36.9			> 100 µM	
C/C=C/C(=O)[C@@H](O)C(C)C		> 100 µM		> 100 µM		> 100 µM		> 100 µM		> 100		> 100 µM		> 100 µM		> 100			> 100 µM	
COc1cc(CNc2nc3cc(N)cc(N)c3nc2-c2ccccc2)cc(OC)c1OC	9.11 µM	> 50 µM			1.73 µM	6.25 µM	5.36 µM	13.9 µM	9.96	22.4	3.27 µM	13.9 µM	0.478 µM	10.2 µM			5.24	20	> 50 µM	12.4 µM
COc1nc2c(cc1S(=O)(=O)c1ccccc1)CCc1c-2cnn1Cc1ccccc1	31.5 µM	> 100 µM	25.3 µM	> 100 µM	7.58 µM	> 100 µM	9.86 µM	> 100 µM	35.8	> 100	7.99 µM	> 100 µM	3.73 µM	> 100 µM	5.22 µM	> 100			> 100 µM	5.48 µM
CNS(=O)(=O)c1ccccc1C(=N)c1ccccc1		> 100 µM				> 100 µM		> 100 µM		> 100		> 100 µM		> 100 µM		> 100		> 100	> 100 µM	
O=S(=O)(CC#CCCCOCC#Cc1ccccc1C#CCS(=O)(=O)c1ccccc1)c1ccccc1	11.8 µM	25.7 µM			20.5 µM	41 µM	> 100 µM	> 100 µM	16.6	45.7	22.6 µM	45.6 µM	33.2 µM	> 100 µM			44.5	> 100	5.9 µM	2.61 µM
CCOc1ccccc1NC(=O)C(=O)C(C(=O)c1ccc2ccccc2c1)C1OC(=O)c2ccccc21 (configuration not stated)		35.2 µM		22.9 µM		22.5 µM		52.8 µM		7.06		33.6 µM		59.5 µM		24.6			30.3 µM	
COc1cc(OC)cc(-c2ccc(-c3ccc(C(=N)N)s3)s2)c1	2.03 µM	3.99 µM	1.03 µM	2.58 µM	0.404 µM	1.73 µM			1.61	3.71	0.294 µM	1.01 µM	0.517 µM and 0.302 µM	2.04 µM and 1.13 µM	1.44 µM	3.62	1.31	2.77	1.12 µM and 0.486 µM	0.396 µM and 0.23 µM
